The subject of one experiment is NCI-H1975. Kind of experiment: CCK-8 tumor cell proliferation, NCI-H1975. The class given is cell-based, Human. The conditions noted are these: Homo sapiens; Table 15, ALK inhibitor based; NCI-H1975; read-out: IC50 inhibiting proliferation of tumor cells, NCI-H1975. The procedure: (§1) The tumor cells used herein were cultured in a cell culture medium listed in table 4 at 37° C. in an incubator with 5% CO2. Prior to experimentation, all cells used were correctly identified by STR profiling, and tested negative for mycoplasma through routine screenings.
(§2) IC50 values of the compounds of the present disclosure (including the compounds in Tables 1 and 3, and compounds of examples) were measured using the Meilun Cell Counting Kit-8 kit from Dalian Meilun Biotech Co., Ltd. Assay details are as follows: tumor cells were seeded in a 96-well plate at a density listed in Table 5. After 24 h, 100 μL of the inoculated cells were treated with 0.5 μL of the compounds of the present disclosure (including the compounds in Tables 1 and 3, and compounds of examples) at 10 different successively decreasing concentrations (starting at the highest concentration of 10 μM; 5-fold serial dilutions). After the cells were treated with the compounds of the present disclosure for a period of time, the cell viability detection reagent was added to the culture medium for cell viability assessment according to the instructions provided with the CCK-8 kit. […] The growth inhibition of the compounds of the present disclosure on cells was plotted by Prism Graphpad software, and the IC50 values of the compounds of the present disclosure were calculated therefrom.

A further experiment deals with NCI-H2228. Kind of experiment: CCK-8 tumor cell proliferation, NCI-H2228. The conditions noted are these: Homo sapiens, Table 15, ALK inhibitor based, read-out: IC50 inhibiting proliferation of tumor cells, NCI-H2228. The procedure:
as §1, §2

For a further experiment, the system named is PC-9. Kind of experiment: CCK-8 tumor cell proliferation, PC-9. It counts as cell-based, Human. The conditions noted are these: Homo sapiens.
The test system of a further experiment is SR. Kind of experiment: CCK-8 tumor cell proliferation, SR. The conditions noted are these: Homo sapiens; Table 15, ALK inhibitor based; SR; read-out: IC50 inhibiting proliferation of tumor cells, SR. It counts as cell-based, Human. The procedure, abridged: (§3)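 Proliferation was measured by CCK-8. Plated cells received compound 24 h later at ten 5-fold dilutions beginning at 10 μM.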

The next experiment has as its system MDA-MB-231. The experiment in a line: CCK-8 tumor cell proliferation, MDA-MB-231. It counts as cell-based, Human. More on the design: IC50 for inhibiting the proliferation of tumor cells, MDA-MB-231: scale not given here. The conditions noted are these: for IC50: Homo sapiens, Table 15, ALK inhibitor based, MDA-MB-231, read-out: IC50 inhibiting proliferation of tumor cells, MDA-MB-231; for IC50 for inhibiting the proliferation of tumor cells, MDA-MB-231: Table 8, designed based on ER inhibitors, 96 h. Summed up:
as §3

The subject of the next experiment is Mino. Kind of experiment: CCK-8 tumor cell proliferation, Mino. The class given is cell-based, Human. The conditions noted are these: for IC50: Homo sapiens, Table 15, ALK inhibitor based, Mino, read-out: IC50 inhibiting proliferation of tumor cells, Mino. Summed up: as §3
The next experiment relates to HCC827. Kind of experiment: CCK-8 tumor cell proliferation, HCC827. The class given is cell-based, Human. The note with it: for IC50: Homo sapiens; for IC50 for inhibiting the proliferation of tumor cells, HCC827: Table 8, designed based on ER inhibitors, 96 h.
In the next experiment the test system is Kasumi-1. Kind of experiment: CCK-8 tumor cell proliferation, Kasumi-1. It counts as cell-based, Human. The conditions noted are these: Table 8, designed based on ER inhibitors; 72 h. The procedure, abridged: as §3
The next experiment deals with T47D. Kind of experiment: CCK-8 tumor cell proliferation, T47D. It counts as cell-based, Human. The conditions noted are these: Table 8, designed based on ER inhibitors; 96 h. The procedure: as §1, §2
The test system of the next experiment is CCRF-CEM. Kind of experiment: CCK-8 tumor cell proliferation, CCRF-CEM. The class given is cell-based, Human. The note with it: Table 8, designed based on ER inhibitors; 96 h. The arrangement: IC50 for inhibiting the proliferation of tumor cells, CCRF-CEM: scale not given here. The procedure, abridged:
as §3

In the next experiment the test system is Hep3B2.7-1. The experiment in a line: CCK-8 tumor cell proliferation, Hep3B2.7-1. The class given is cell-based, Human. The note with it: Table 8, designed based on ER inhibitors; 96 h. The procedure, abridged:
as §3

The subject of another experiment is SW620. Kind of experiment: CCK-8 tumor cell proliferation, SW620. The class given is cell-based, Human. The conditions noted are these: Table 8, designed based on ER inhibitors; 96 h. Summed up: as §3
The next experiment deals with MM.1S. The experiment in a line: CCK-8 tumor cell proliferation, MM.1S. The class given is cell-based. The note with it: Table 8, designed based on ER inhibitors; 72 h. Summed up:
as §3

The test system of the next experiment is SU-DHL-6. Kind of experiment: CCK-8 tumor cell proliferation, SU-DHL-6. The class given is cell-based, Human. The conditions noted are these: Table 8, designed based on ER inhibitors; 72 h. The procedure:
as §1, §2

A further experiment has as its system MV-4-11. Kind of experiment: CCK-8 tumor cell proliferation, MV-4-11. The note with it: Homo sapiens, MV4-11; Table 15, ALK inhibitor based; MV-4-11; read-out: IC50 inhibiting proliferation of tumor cells, MV-4-11. It counts as cell-based, Human. The procedure, abridged:
as §3

[1] abbreviates: Table 15, ALK inhibitor based, PC-9, read-out: IC50 inhibiting proliferation of tumor cells, PC-9.
Setting [2] is: Table 15, ALK inhibitor based, HCC827, read-out: IC50 inhibiting proliferation of tumor cells, HCC827.

The values that follow come from patent publication US20260199323A1, “LIGAND COMPOUNDS FOR E3 UBIQUITIN LIGASE, PROTEIN DEGRADERS DEVELOPED ON BASIS OF LIGAND COMPOUNDS, AND USES THEREOF” (GLUETACS THERAPEUTICS (SHANGHAI) CO., LTD., priority 2021, published 2026).

Like-named read-outs stand apart in the source and are kept apart here.

Turning to `COc1cc(N2CCC(N3CCN(Cc4ccc5c(c4)CN(C4CCC(=O)NC4=O)C5=O)CC3)CC2)ccc1Nc1ncc(Cl)c(Nc2ccccc2P(C)(C)=O)n1` (stereo not drawn) [GT-02811, 3-(5-((4-(1-(4-((5-chloro-4-((2-(dimethylphosphoryl)phenyl)amino)pyrimidin-2-yl)amino)-3-methoxyphenyl)piperidin-4-yl)piperazin-1-yl)methyl)-1-oxoisoindolin-2-yl)piperidine-2,6-dione], the IC50 in the experiment on NCI-H1975 was in the range of 0.1 to 0.5 µM; in the experiment on NCI-H2228, 1 to 5 µM.
Consider `CCc1cc2c(cc1N1CCC(N3CCOCC3)CC1)C(C)(C)c1[nH]c3cc(C#N)ccc3c1C2=O` [alectinib, reference compound], for which the IC50 with PC-9 (setting [1]) was 0.1 to 0.5 µM; with NCI-H1975 it was 1 to 5 µM; in the experiment with NCI-H2228, 1 to 5 µM; in the experiment on SR, less than 0.05 µM; in the experiment on MDA-MB-231 it was 1 to 5 µM; with Mino it was 5 to 10 µM.
Turning to `COc1cc(N2CCC(N3CCN(C)CC3)CC2)ccc1Nc1ncc(Cl)c(Nc2ccccc2P(C)(C)=O)n1` [brigatinib, reference compound], the IC50 is 1 to 5 µM with PC-9 (PC-9, read-out: IC50 inhibiting proliferation of tumor cells, PC-9); 0.1 to 0.5 µM in the experiment on HCC827 (HCC827, read-out: IC50 inhibiting proliferation of tumor cells, HCC827); 0.5 to 1 µM with NCI-H1975; 0.1 to 0.5 µM in the experiment with NCI-H2228; less than 0.05 µM with SR; 0.5 to 1 µM with MDA-MB-231. Moreover, the IC50 with Mino fell in the range of 5 to 10 µM.
Consider `O=C1CCC(N2Cc3cc(CN4CCN(c5ccc(C(=C(CCCl)c6ccc(O)cc6)c6ccc(O)cc6)cc5)CC4)ccc3C2=O)C(=O)N1` (stereo not drawn) [GT-03638, 3-(5-((4-(4-(4-chloro-1,2-bis(4-hydroxyphenyl)but-1-en-1-yl)phenyl)piperazin-1-yl)methyl)-1-oxoisoindolin-2-yl)piperidine-2,6-dione], for which the “IC50 for inhibiting the proliferation of tumor cells, HCC827” value in the experiment with HCC827 is “A+”. In the experiment on Kasumi-1, the “IC50 for inhibiting the proliferation of tumor cells, Kasumi-1” value is reported as “A+”. In addition, in the experiment on T47D, the “IC50 for inhibiting the proliferation of tumor cells, T47D” value is recorded as “A+”. Also, the “IC50 for inhibiting the proliferation of tumor cells, CCRF-CEM” value in the experiment on CCRF-CEM was “A+”. Also, in the experiment on Hep3B2.7-1, the “IC50 for inhibiting the proliferation of tumor cells, Hep3B2.7-1” value is “A+”. Moreover, the “IC50 for inhibiting the proliferation of tumor cells, SW620” value in the experiment on SW620 is reported as “A+”. For the same compound, the “IC50 for inhibiting the proliferation of tumor cells, MDA-MB-231” value in the experiment on MDA-MB-231 is reported as “A+”. Besides, the “IC50 for inhibiting the proliferation of tumor cells, MM.1S” value in the experiment on MM.1S was “A+”. Also, the “IC50 for inhibiting the proliferation of tumor cells, SU-DHL-6” value in the experiment on SU-DHL-6 was “A+”. Moreover, the “IC50 for inhibiting the proliferation of tumor cells, Mino” value with Mino (Table 8, designed based on ER inhibitors, 72 h) is “A+”.
With `COc1cc(N2CCC(NCc3ccc4c(c3)CN(C3CCC(=O)NC3=O)C4=O)CC2)ccc1Nc1ncc(Cl)c(Nc2ccccc2P(C)(C)=O)n1` (stereo not drawn) [GT-03015, 3-(5-(((1-(4-((5-chloro-4-((2-(dimethylphosphoryl)phenyl)amino)pyrimidin-2-yl)amino)-3-methoxyphenyl)piperidin-4-yl)amino)methyl)-1-oxoisoindolin-2-yl)piperidine-2,6-dione], the IC50 with NCI-H1975 lay within 0.05 to 0.1 µM; in the experiment on NCI-H2228, 0.1 to 0.5 µM.
Consider `CCc1cc2c(cc1N1CCN(Cc3ccc4c(c3)CN(C3CCC(=O)NC3=O)C4=O)CC1)C(C)(C)c1[nH]c3cc(C#N)ccc3c1C2=O` (stereo not drawn) [GT-03409, 8-(4-((2-(2,6-dioxopiperidin-3-yl)-1-oxoisoindolin-5-yl)methyl)piperazin-1-yl)-9-ethyl-6,6-dimethyl-11-oxo-6,11-dihydro-5H-benzo[b]carbazole-3-carbonitrile], for which the IC50 is 1 to 5 µM in the experiment with PC-9 (setting [1]); 1 to 5 µM in the experiment with HCC827 (setting [2]); 1 to 5 µM in the experiment with NCI-H2228; less than 0.05 µM with SR; 1 to 5 µM in the experiment on MDA-MB-231.
For `CCc1cc2c(cc1N1CCC(N3CCN(Cc4ccc5c(c4)CN(C4CCC(=O)NC4=O)C5=O)CC3)CC1)C(C)(C)c1[nH]c3cc(C#N)ccc3c1C2=O` (stereo not drawn) [GT-02972, 8-(4-(4-((2-(2,6-dioxopiperidin-3-yl)-1-oxoisoindolin-5-yl)methyl)piperazin-1-yl)piperidin-1-yl)-9-ethyl-6,6-dimethyl-11-oxo-6,11-dihydro-5H-benzo[b]carbazole-3-carbonitrile], the IC50 with PC-9 (setting [1]) is 0.5 to 1 µM; with HCC827 (setting [2]) it was 1 to 5 µM; in the experiment on NCI-H1975 it was 0.5 to 1 µM; in the experiment on NCI-H2228 it was 0.5 to 1 µM; in the experiment on SR it was less than 0.05 µM; with MDA-MB-231 it was 0.5 to 1 µM. In addition, in the experiment on Mino, the IC50 was 0.5 to 1 µM.
Turning to `CCC(=C(c1ccc(O)cc1)c1ccc(OCCNCc2ccc3c(c2)CN(C2CCC(=O)NC2=O)C3=O)cc1)c1ccc(O)cc1` (stereo not drawn) [GT-03214, 3-(5-(((2-(4-(1,2-bis(4-hydroxyphenyl)but-1-en-1-yl)phenoxy)ethyl)amino)methyl)-1-oxoisoindolin-2-yl)piperidine-2,6-dione], the “IC50 for inhibiting the proliferation of tumor cells, HCC827” value in the experiment on HCC827 is reported as “A+”. For the same compound, the “IC50 for inhibiting the proliferation of tumor cells, Kasumi-1” value in the experiment with Kasumi-1 is “A+”. Also, the “IC50 for inhibiting the proliferation of tumor cells, T47D” value with T47D is listed as “A+”. For the same compound, the “IC50 for inhibiting the proliferation of tumor cells, CCRF-CEM” value with CCRF-CEM is listed as “A+”. In addition, in the experiment with Hep3B2.7-1, the “IC50 for inhibiting the proliferation of tumor cells, Hep3B2.7-1” value is recorded as “A+”. Moreover, the “IC50 for inhibiting the proliferation of tumor cells, SW620” value in the experiment with SW620 was “A+”. Besides, the “IC50 for inhibiting the proliferation of tumor cells, MDA-MB-231” value with MDA-MB-231 is on record as “A+”. For the same compound, in the experiment on MM.1S, the “IC50 for inhibiting the proliferation of tumor cells, MM.1S” value was “A+”. Further, the “IC50 for inhibiting the proliferation of tumor cells, SU-DHL-6” value in the experiment on SU-DHL-6 is given as “A+”.
Regarding `CCc1cc2c(cc1N1CCC(N3CCN(Cc4cc(F)c5c(c4)CN(C4CCC(=O)NC4=O)C5=O)CC3)CC1)C(C)(C)c1[nH]c3cc(C#N)ccc3c1C2=O` (stereo not drawn) [GT-03760, 8-(4-(4-((2-(2,6-dioxopiperidin-3-yl)-7-fluoro-1-oxoisoindolin-5-yl)methyl)piperazin-1-yl)piperidin-1-yl)-9-ethyl-6,6-dimethyl-11-oxo-6,11-dihydro-5H-benzo[b]carbazole-3-carbonitrile], the IC50 with NCI-H1975 was 0.05 to 0.1 µM; with NCI-H2228 it was 0.1 to 0.5 µM; with SR it was less than 0.05 µM; in the experiment on MV-4-11, 0.5 to 1 µM; with Mino, 0.1 to 0.5 µM.
For the compound `Cc1cc(Nc2ncc(Cl)c(Nc3ccccc3S(=O)(=O)C(C)C)n2)c(OC(C)C)cc1C1CCN(Cc2ccc3c(c2)CN(C2CCC(=O)NC2=O)C3=O)CC1` (stereo not drawn) [GT-02973, 3-(5-((4-(4-((5-chloro-4-((2-(isopropylsulfonyl)phenyl)amino)pyrimidin-2-yl)amino)-5-isopropoxy-2-methylphenyl)piperidin-1-yl)methyl)-1-oxoisoindolin-2-yl)piperidine-2,6-dione], the IC50 in the experiment with PC-9 (setting [1]) was 0.5 to 1 µM; with NCI-H2228, 0.1 to 0.5 µM; in the experiment with SR it was less than 0.05 µM; in the experiment on MDA-MB-231, 0.5 to 1 µM.
